Assay results published in PubChem BioAssay (NCI).
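These data come from cells grown in 96-well plates and exposed to compound for 48 hours at five concentrations. GI50 marks 50% less growth. TGI denotes the concentration required for complete inhibition of growth.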

Assays:
Test in all cases: NCI-60 cell line screen, 48 h
CCRF-CEM leukemia = system: CCRF-CEM leukemia
HOP-62 NSCLC = system: HOP-62 NSCLC
KM12 colon = system: KM12 colon
MALME-3M melanoma = system: MALME-3M melanoma
SNB-75 CNS = system: SNB-75 CNS
SW-620 colon = system: SW-620 colon
SK-MEL-2 melanoma = system: SK-MEL-2 melanoma
LOX IMVI melanoma = system: LOX IMVI melanoma
MDA-MB-231 breast = system: MDA-MB-231 breast
NCI/ADR-RES ovarian = system: NCI/ADR-RES ovarian

Row | SMILES | TGI (CCRF-CEM leukemia) | TGI (HOP-62 NSCLC) | TGI (KM12 colon) | TGI (MALME-3M melanoma) | TGI (SNB-75 CNS) | TGI (SW-620 colon) | TGI (SK-MEL-2 melanoma) | TGI (LOX IMVI melanoma) | TGI (MDA-MB-231 breast) | TGI (NCI/ADR-RES ovarian) | GI50 (HOP-62 NSCLC) | GI50 (KM12 colon) | GI50 (LOX IMVI melanoma) | GI50 (MALME-3M melanoma) | GI50 (MDA-MB-231 breast) | GI50 (NCI/ADR-RES ovarian) | GI50 (SK-MEL-2 melanoma) | GI50 (SNB-75 CNS) | GI50 (SW-620 colon) | GI50 (CCRF-CEM leukemia)
1 | COc1ccccc1NC(=O)C1=C(C)NC(C)=C(C(=O)Nc2ccccc2OC)C1C1=CC=COC1 | 48.4 µM | > 100 µM | 49.6 µM | > 100 µM | > 100 µM | 22.1 µM |  |  |  |  |  |  |  |  |  |  |  |  |  | 
2 | Cc1cc([N+](=O)[O-])ccc1NC(=O)C(=O)C(C(=O)c1ccccc1-c1ccccc1)C1OC(=O)c2ccccc21 (configuration not stated) | > 100 µM |  | 32.5 µM | 29.9 µM |  | 36.6 µM | 29.2 µM |  |  |  |  |  |  |  |  |  |  |  |  | 
3 | O=C(O)/C=C/C(=O)N1Cc2cc3ccccc3nc2C1 |  | > 100 µM | > 100 µM | > 100 µM | > 100 µM | > 100 µM | > 100 µM | > 100 µM | > 100 µM | > 100 µM |  |  |  |  |  |  |  |  |  | 
4 | O=C(c1ccco1)c1nc2cc(C(F)(F)F)ccc2nc1C(F)(F)F |  | > 100 µM | > 100 µM | > 100 µM | 62.7 µM | > 100 µM | > 100 µM | > 100 µM | > 100 µM | > 100 µM | 71 µM | > 100 µM | > 100 µM | > 100 µM | 99.1 µM | > 100 µM | > 100 µM | 18.9 µM | > 100 µM | 
5 | COc1ccc2sc3cccc(NCCN(C)C)c3c(=O)c2c1 | 8.39 µM | 10.7 µM | 12.1 µM | 3.88 µM | 12.8 µM | 5.57 µM |  |  | 4.29 µM | 11.3 µM | 3.57 µM | 3.72 µM |  | 1.95 µM | 1.57 µM | 2.98 µM |  | 2.9 µM | 2.07 µM | 2.43 µM
6 | c1ccc([CH2][Sn]([CH2]c2ccccc2)([O]c2cccc3cccnc23)[O]c2cccc3cccnc23)cc1 |  | 0.515 µM | 0.515 µM | 0.689 µM | 1.81 µM | 0.376 µM | 1.77 µM | 1.65 µM |  |  | 0.207 µM | 0.223 µM | 0.53 µM | 0.266 µM |  |  | 0.511 µM | 0.468 µM | 0.188 µM | 
7 | CN(C)c1ccc(/C=C/C(=O)[O-])cc1.CN(C)c1ccc(/C=C/C(=O)[O-])cc1.[Cu+2] | > 100 µM | > 100 µM | > 100 µM | > 100 µM | > 100 µM | > 100 µM | > 100 µM | > 70.8 µM |  |  |  |  |  |  |  |  |  |  |  | 
8 | CC(=O)Nc1ccc(/C=c2\sc3nnc(CCC(=O)Nc4ccccc4Cl)n3c2=O)cc1 | 42.9 µM | > 100 µM | 46.4 µM | > 100 µM |  | 87.5 µM | 81.9 µM | 34.5 µM |  |  |  |  |  |  |  |  |  |  |  | 
9 | COC1OC(CO)C(O)C(OC(C)=O)C1NC(=O)N(CCCl)N=O (configuration not stated) | > 100 µM |  | > 100 µM | > 100 µM | > 100 µM | > 100 µM | 8.75 µM | > 100 µM |  |  |  |  |  |  |  |  |  |  |  | 
10 | COc1ccc2c(c1)[n+]([O-])c(-c1ccc([N+](=O)[O-])cc1)c(N)[n+]2[O-] | > 100 µM | > 100 µM | > 100 µM | > 100 µM | > 100 µM | > 100 µM | > 100 µM |  |  |  |  |  |  |  |  |  |  |  |  | 
